Laboratory results taken from ChEMBL document CHEMBL3774336, “Identification of spirooxindole and dibenzoxazepine motifs as potent mineralocorticoid receptor antagonists” (Bioorg Med Chem, 2016).

How the values were obtained:
[1] = molecular target: 5-hydroxytryptamine receptor 2B (Homo sapiens) (UniProt P41595); assay: Inhibition of serotonin 5H2B receptor (unknown origin) at 10 uM
hERG (KCNH2) = hERG (KCNH2) (Homo sapiens, UniProt Q12809); assay: Inhibition of human ERG (unknown origin) at 10 uM
Chain of hERG (KCNH2) (Q12809 whole entry): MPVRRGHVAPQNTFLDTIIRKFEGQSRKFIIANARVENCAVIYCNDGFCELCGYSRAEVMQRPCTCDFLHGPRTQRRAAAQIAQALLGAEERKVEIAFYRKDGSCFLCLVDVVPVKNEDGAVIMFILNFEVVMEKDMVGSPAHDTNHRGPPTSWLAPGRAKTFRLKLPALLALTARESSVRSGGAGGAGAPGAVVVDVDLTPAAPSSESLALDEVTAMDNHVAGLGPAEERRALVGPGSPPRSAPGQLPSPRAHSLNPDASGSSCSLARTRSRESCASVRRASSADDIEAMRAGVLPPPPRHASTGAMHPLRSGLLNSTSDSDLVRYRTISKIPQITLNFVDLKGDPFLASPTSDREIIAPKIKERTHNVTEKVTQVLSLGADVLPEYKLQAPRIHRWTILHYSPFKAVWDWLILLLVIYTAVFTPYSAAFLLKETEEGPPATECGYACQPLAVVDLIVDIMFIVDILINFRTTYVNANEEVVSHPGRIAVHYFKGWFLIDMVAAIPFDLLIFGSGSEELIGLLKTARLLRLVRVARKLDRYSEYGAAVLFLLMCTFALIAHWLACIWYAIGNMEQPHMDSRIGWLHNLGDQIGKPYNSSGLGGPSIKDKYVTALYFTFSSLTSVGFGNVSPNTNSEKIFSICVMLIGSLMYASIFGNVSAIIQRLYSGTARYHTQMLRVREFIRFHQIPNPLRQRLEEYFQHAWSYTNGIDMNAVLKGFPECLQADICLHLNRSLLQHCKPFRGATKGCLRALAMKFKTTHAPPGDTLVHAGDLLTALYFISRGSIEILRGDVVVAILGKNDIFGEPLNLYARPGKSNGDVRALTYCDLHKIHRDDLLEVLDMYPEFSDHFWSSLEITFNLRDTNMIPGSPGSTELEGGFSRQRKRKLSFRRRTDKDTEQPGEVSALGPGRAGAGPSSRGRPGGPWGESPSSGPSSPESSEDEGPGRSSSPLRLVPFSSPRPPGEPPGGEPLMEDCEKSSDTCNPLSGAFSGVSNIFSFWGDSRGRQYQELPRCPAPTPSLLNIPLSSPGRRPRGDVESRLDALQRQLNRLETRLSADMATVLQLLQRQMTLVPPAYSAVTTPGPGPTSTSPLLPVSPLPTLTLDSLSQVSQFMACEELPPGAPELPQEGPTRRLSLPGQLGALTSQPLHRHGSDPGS

[2] = molecular target: T1, Alpha-2A adrenergic receptor (Homo sapiens) (UniProt P08913); assay: Inhibition of adrenergic alpha2A receptor (unknown origin) at 10 uM
T1 sequence (whole entry): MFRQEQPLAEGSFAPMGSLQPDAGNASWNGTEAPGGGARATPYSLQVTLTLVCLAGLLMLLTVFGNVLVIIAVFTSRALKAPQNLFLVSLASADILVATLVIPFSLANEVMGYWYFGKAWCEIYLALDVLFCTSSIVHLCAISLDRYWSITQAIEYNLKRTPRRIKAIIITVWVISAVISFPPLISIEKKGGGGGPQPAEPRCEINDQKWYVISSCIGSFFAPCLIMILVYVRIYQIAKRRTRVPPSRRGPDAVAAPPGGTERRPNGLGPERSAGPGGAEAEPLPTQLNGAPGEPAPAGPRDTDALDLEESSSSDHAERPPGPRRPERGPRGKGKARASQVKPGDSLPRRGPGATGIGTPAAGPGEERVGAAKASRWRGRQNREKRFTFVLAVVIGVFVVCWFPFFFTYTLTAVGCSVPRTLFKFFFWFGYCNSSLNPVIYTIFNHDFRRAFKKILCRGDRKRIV

[3] = molecular target: T2, Glucocorticoid receptor (Homo sapiens) (UniProt P04150); assay: Inhibition of GST-tagged human glucocorticoid receptor LBD domain expressed in insect cells at 10 uM by Gal4-based fluorescence polarization assay
T2 sequence (whole entry): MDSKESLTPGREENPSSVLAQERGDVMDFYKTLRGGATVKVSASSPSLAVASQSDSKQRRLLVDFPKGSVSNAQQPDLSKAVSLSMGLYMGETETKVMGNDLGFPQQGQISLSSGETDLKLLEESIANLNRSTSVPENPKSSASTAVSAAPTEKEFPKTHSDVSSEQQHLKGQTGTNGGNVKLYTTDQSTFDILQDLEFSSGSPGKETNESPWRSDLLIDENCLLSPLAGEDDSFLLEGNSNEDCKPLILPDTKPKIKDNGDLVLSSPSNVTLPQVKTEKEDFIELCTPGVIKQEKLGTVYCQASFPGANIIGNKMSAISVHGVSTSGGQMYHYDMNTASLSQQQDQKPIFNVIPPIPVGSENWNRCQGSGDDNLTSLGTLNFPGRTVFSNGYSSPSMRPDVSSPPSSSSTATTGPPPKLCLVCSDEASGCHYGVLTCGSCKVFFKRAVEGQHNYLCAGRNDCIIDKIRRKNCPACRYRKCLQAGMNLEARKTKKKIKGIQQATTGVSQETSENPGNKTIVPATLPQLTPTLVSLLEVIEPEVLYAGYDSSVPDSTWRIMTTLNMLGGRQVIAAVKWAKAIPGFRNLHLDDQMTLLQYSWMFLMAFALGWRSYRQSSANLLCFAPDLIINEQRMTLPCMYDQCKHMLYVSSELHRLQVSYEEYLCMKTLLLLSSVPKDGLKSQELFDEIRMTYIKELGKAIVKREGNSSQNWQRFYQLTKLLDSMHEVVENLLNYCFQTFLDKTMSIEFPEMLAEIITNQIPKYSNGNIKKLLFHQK

[4] = molecular target: T3, Progesterone receptor (Homo sapiens) (UniProt P06401); assay: Inhibition of GST-tagged human progesterone receptor LBD domain expressed in insect cells at 10 uM by Gal4-based fluorescence polarization assay
T3 sequence (whole entry): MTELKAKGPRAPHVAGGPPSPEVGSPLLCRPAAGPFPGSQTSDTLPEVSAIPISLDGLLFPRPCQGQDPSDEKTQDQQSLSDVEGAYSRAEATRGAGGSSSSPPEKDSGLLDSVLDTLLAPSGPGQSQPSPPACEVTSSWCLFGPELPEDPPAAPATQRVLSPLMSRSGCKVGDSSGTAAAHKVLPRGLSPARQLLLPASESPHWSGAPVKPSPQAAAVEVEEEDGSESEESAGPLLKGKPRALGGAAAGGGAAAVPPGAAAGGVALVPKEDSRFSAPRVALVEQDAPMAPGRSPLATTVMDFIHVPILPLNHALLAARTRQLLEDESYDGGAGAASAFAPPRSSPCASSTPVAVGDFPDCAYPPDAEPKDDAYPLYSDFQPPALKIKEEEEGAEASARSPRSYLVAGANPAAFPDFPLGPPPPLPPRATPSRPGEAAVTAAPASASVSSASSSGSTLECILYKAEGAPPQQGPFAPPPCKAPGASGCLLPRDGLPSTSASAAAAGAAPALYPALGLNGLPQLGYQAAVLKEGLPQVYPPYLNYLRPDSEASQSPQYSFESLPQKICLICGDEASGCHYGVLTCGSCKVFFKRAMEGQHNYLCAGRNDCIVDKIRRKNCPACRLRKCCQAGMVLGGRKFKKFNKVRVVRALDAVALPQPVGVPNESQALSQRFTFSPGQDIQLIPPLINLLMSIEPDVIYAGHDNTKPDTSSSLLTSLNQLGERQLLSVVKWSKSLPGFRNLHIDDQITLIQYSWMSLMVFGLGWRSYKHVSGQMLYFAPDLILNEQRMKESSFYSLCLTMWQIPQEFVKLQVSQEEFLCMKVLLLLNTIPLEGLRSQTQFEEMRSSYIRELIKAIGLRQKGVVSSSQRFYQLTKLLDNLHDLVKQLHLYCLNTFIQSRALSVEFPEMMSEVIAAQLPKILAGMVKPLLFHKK

[5] = molecular target: T4, Mineralocorticoid receptor (Homo sapiens, UniProt P08235, C808S)
T4 sequence (P08235 whole entry C808S): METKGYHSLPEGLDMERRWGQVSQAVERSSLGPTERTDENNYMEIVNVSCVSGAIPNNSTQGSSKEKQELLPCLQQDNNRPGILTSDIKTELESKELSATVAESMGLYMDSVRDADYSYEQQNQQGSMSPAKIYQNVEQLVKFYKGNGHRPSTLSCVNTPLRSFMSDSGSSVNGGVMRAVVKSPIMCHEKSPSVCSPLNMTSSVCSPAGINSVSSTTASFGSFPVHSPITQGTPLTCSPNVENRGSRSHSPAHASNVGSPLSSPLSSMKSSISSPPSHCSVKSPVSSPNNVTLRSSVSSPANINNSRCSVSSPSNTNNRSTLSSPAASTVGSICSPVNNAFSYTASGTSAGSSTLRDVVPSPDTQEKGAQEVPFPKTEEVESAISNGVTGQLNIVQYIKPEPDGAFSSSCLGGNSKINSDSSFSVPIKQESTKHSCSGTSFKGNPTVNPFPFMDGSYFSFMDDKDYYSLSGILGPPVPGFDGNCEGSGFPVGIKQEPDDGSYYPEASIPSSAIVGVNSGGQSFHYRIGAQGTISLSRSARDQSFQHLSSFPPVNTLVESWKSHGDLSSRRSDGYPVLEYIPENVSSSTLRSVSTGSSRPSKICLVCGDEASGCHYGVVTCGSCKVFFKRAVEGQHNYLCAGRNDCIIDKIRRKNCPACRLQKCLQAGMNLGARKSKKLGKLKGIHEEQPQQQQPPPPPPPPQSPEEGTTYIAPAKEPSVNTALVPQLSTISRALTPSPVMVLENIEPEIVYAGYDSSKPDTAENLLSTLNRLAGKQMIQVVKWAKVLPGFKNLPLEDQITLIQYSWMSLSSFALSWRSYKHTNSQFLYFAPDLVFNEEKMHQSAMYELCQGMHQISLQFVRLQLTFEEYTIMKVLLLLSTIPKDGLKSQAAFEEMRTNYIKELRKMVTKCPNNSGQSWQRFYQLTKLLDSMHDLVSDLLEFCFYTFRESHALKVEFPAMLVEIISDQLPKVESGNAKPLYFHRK

[6] = molecular target: T4, Mineralocorticoid receptor; remark: listed apart in the source

Chain of 5-hydroxytryptamine receptor 2B (Homo sapiens) (P41595 whole entry): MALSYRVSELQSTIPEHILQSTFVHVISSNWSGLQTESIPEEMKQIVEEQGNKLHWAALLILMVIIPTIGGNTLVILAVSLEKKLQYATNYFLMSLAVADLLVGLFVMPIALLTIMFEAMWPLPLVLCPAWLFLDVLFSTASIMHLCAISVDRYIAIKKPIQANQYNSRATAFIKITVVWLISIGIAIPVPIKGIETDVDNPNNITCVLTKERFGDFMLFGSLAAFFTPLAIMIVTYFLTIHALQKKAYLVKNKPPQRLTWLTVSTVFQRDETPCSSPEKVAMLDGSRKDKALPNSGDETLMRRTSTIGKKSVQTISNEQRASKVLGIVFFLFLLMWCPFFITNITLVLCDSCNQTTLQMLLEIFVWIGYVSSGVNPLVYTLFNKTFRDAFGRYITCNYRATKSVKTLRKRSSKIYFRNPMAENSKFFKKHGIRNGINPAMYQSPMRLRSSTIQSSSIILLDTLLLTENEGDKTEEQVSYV

| SMILES | inhibition [1] [%] | inhibition at 10 µM (hERG (KCNH2)) [%] | inhibition [2] [%] | inhibition [3] [%] | inhibition [4] [%] | IC50 [5] [nM] | Ki [6] [nM] |
| --- | --- | --- | --- | --- | --- | --- | --- |
| O=C1COc2ccc(/C=C3\c4ccccc4COc4cc(F)ccc43)cc2N1 | 67 | 26 | 59 | 92 | 98 | 2 | 2 |
| CN1CCC2(CC1)C(=O)Nc1cc(/C=C3\c4ccccc4COc4cc(F)ccc43)ccc12 | 87 | 78 | 100 | < 40 | < 40 | 19 | 6 |
